Test results from PMC3003168, “Preparation and In vitro / In vivo characterization of spray dried microsphere formulation encapsulating 4-chlorocurcumin” (Indian Journal of Pharmaceutical Sciences, 2010).

Key:
CCl4-treated rat model = assay: Hepatoprotective activity in CCl4-treated rat model; assay type: in vivo, male Wistar rats; conditions: CCl4-treated rats
Experimental: Hepatoprotective activity was determined for both the microsphere formulation and i.v. solution administration of 4-chlorocurcumin following a protocol reported previously. Another set of rats were used in this study. Male rats weighing around 150-200 g was used in this study. For this experiment, animals were divided into 6 different groups. Group I were normal control. Group II was given carbontetrachloride regularly and it served as toxic control. Group II received CCl4 at a dose of 0.7 ml/kg by intraperitonial route on the 3rd, 6th and 9th day consisting of mixture of CCl4 and olive oil (25:75). Group III received the drug in the solution form by i.v. route. Group III received 4-chlorocurcumin dissolved in PEG 600 solution at a rationale of 1 mg/ml by intravenous route twice daily. Group IV received 4-chlorocurcumin microsphere formulation one time in the beginning of the experiment. Microspheres 2 was administered for this purpose. A 20 mg of formulation was dispersed in 1 ml normal saline and was administered intraperitoneally. Group V were injected with placebo microspheres and Group VI served as a control for PEG injected and was injected 1 ml of PEG solution twice a day. Serum samples were procured from the blood samples collected from common carotid artery on the final day of experimentation prior to sacrifice of the animal. The blood samples collected were subjected to centrifugation for 15 min at 3000 rpm and the serum separated was transferred into fresh empty microcentrifuge tube and was stored in deep freeze for pharmacodynamic evaluation. Hepatoprotective activity was quantified by the activity of SGOT, SGPT levels present in the serum samples and the method used for quantification was modified IFFC method. Subsequently, livers of the all rats in each group were further sent for histopathological studies and for this purpose at the end of the study the rats were sacrificed, the livers were separated carefully and were transferred to sterile containers having formalin solution. Liver sections were subsequently prepared using a previously published method.

[1] = Pharmacokinetics of 4-chlorocurcumin in rats; assay type: in vivo; conditions: male, Wistar, blood, iv; rat, i.v. solution, 2.8 mg
Experimental: From the data of the release studies, a suitable microsphere formulation to be used further in the rat studies was selected. For in vivo characterization, in vivo drug release (pharmacokinetic study) and reduction in hepatoprotective activity in a CCl4-treated rat model were determined. Pharmacokinetics of the formulation was studied in male Wistar rats. After procurement of the rats, these were acclimatized for 10 days prior to the conduction of the experiment. Rats were injected one time with microsphere suspension containing 2.8 mg of active drug intraperitoneally. A 20 mg microsphere suspension was dispersed in 1 ml normal saline and was injected. Parallel to the microsphere administration, another dose of the drug in the form of solution was administered via i.v. route in another set of rats. In this case drug was administered at an equivalent dose of 2.8 mg. Blood was periodically collected from retroorbital sinus and assayed for the drug using a HPLC standard developed using a previously reported method. The mobile phase consisted of methanol:water at a ratio of 70:30. The retention times and the peak areas were noted. Extraction efficiency for the selected system was determined. The following possible pharmacokinetic parameters for both iv solution administration as well as ip microsphere administration were determined using WinNonlin: Ka, ke, Vd, elimination t1/2, absorption t1/2, Tmax, Cmax. Further, using Wagner-Nelson method cumulative amount of drug released into the plasma was determined.

[2] = serum, final day, solution i.v. twice daily, microspheres 20 mg i.p. one time

Question: Which results are given for `O=C(/C=C/c1ccc(Cl)cc1)CC(=O)/C=C/c1ccc(Cl)cc1` [4-chlorocurcumin]?
Answer: Hepatoprotective activity (reversal of SGOT and SGPT versus toxic control CCl4) (CCl4-treated rat model): although statistically significant, was not reduced to reach the normal levels; Histology of liver (CCl4-treated rat model; end of study): Normal liver; SGOT (CCl4-treated rat model; [2]): 42.10±1.5 u/1; SGPT (CCl4-treated rat model; [2]): 25.7±1.8 u/1; Body weights on day 9 (CCl4-treated rat model; solution i.v. twice daily, microspheres 20 mg i.p. one time): 190 ± 18 g; AUC [1]: 227 µg·h/mL; Cmax [1]: 196 µg/mL; Tmax [1]: 0.5 h; Vd [1]: 0.0235 L; clearance [1]: 0.137 mL/min; half-life [1]: 1.99 h
